The subject of data set [1] is human pancreatic cancer cells, MiaPaCa-2 cells. The data set can be described thus: Test Example 1: antitumor effects of arctigenin treatment and radiation therapy in mice transplanted with MiaPaCa-2 cells. Format: in vivo, BALB/cAJc1-nu/nu mice. The procedure: The antitumor effects of arctigenin treatment and radiation therapy were evaluated. To BALB/cAJc1-nu/nu mice (CLEA Japan, Inc.), 1×10^6 human pancreatic cancer cells, MiaPaCa-2 cells were subcutaneously transplanted. On day 14 after the transplantation, the mice to which the cells were transplanted were divided into four groups of (a) untreated group, (b) arctigenin treatment group, (c) radiation therapy group and (d) arctigenin treatment-radiation therapy-combination group. The arctigenin treatment group and the combination group were treated with arctigenin for two weeks. The arctigenin treatment was conducted by giving feed containing 0.5% (w/w) of the burdock fruit extract of Example 1 to the mice. When the dose of arctigenin was calculated assuming that the daily intake of the feed of the mice was 3 to 5 g, the dose was 1.5 to 2.5 mg/individual/day. After two weeks of the arctigenin treatment, radiation was applied to the tumors of the radiation therapy group and the combination group using an x-ray irradiator (Faxitron X-ray (model: CP160)) under the setting conditions of 160 kV and 6.3 mA at a dose of 20 Gy/fraction through a copper plate filter. Then, the arctigenin administration group and the combination group were treated with arctigenin for two weeks. After the arctigenin treatment, the tumor sizes and the tumor weights of the groups were measured. In addition, the tumors were collected and pathologically analyzed.

For data set [2] the following is noted: cited from earlier work.
Data set [3] has as its system human pancreatic cancer cells, MiaPaCa-2 cells. Nature of the data set: Test Example 2: order of arctigenin treatment and radiation therapy in mice transplanted with MiaPaCa-2 cells. The class given is in vivo, BALB/cAJc1-nu/nu mice. The procedure:
In order to evaluate whether the order of the burdock fruit extract treatment and the radiation therapy would affect the antitumor effects, arctigenin treatment was conducted for two weeks either before or after conducting radiation therapy. To BALB/cAJc1-nu/nu mice (CLEA Japan, Inc.), 1×10^6 human pancreatic cancer cells, MiaPaCa-2 cells were subcutaneously transplanted. On day 14 after the transplantation, the mice to which the cells were transplanted were divided into (a) untreated group, (b) arctigenin treatment group, (c) radiation therapy group and (d) arctigenin treatment-radiation therapy-combination group. The (b) arctigenin treatment group was further divided into a group in which two-week arctigenin treatment was started 14 days after the transplantation and a group in which two-week arctigenin treatment was started four weeks after the transplantation. […] When the dose of arctigenin was calculated assuming that the daily intake of the feed of the mice was 3 to 5 g, the dose was 1.5 to 2.5 mg/individual/day. […] After the two-week arctigenin treatment after the radiation therapy, the tumor sizes and the tumor weights of the groups were measured. In addition, the tumors were collected and pathologically analyzed.

The mark [4] stands for this setting: combination of arctigenin treatment and radiation therapy (20 Gy/fraction), two weeks after the radiation therapy, vs untreated group.

As for `COc1cc(C[C@H]2C(=O)OC[C@@H]2Cc2ccc(OC)c(OC)c2)ccc1O` [arctigenin], the “intratumoral hypoxic region (photon counts/tumor volume) using IVIS” value in data set [1] (after the arctigenin treatment (before radiation therapy), vs untreated group, FIG. 3, FIG. 4) is on record as “significantly smaller”. Further, the average tumor size entry in data set [1] (after two weeks of first arctigenin treatment (before radiation therapy), vs untreated group, feed containing 0.5% (w/w) burdock fruit extract of Example 1, arctigenin 1.5 to 2.5 mg/individual/day, FIG. 2) is reported as “significantly smaller”; in data set [3] (two-week arctigenin treatment before radiation therapy (AG-Con, RT(+)) vs arctigenin treatment after radiation therapy (Con-AG, RT(+)), FIG. 11) it was “shrank significantly”. The tumor size entry in data set [1] (arctigenin treatment alone, after end of treatment (two weeks after the radiation therapy), vs untreated group) is recorded as “a tendency towards a smaller tumor size”. For the same compound, in data set [1] (setting [4]), the tumor sizes result is listed as “significantly smaller”. For the same compound, in data set [1] (setting [4]), the tumor weights entry is “significantly smaller”. In addition, the “tumors (size)” value in data set [1] (combination of arctigenin treatment and radiation therapy, vs radiation therapy alone) is listed as “significantly small”. Besides, the solubility in water entry in data set [2] is listed as “insoluble”. Further, the “hypoxic state in the tumor” value in data set [3] (arctigenin treatment before the radiation therapy, IVIS, FIG. 12) is given as “improved”.

(Values after patent US20210170026A1, “ANTICANCER AGENT, RADIOSENSITIZER, AND FOOD COMPOSITION” (KRACIE PHARMA, LTD., priority 2016, published 2021).)
